Data as given in US10953003B2, “Methods for treating cancer” (X4 Pharmaceuticals, Inc., priority 2015, dated 2021).

Key:
786-0 RCC xenografts = assay: Murine 786-0 RCC xenograft model; type: in vivo, mice; conditions: for effects on tumor growth / MDSC infiltration of tumors: 786-0 xenografts; for effects on tumor growth: nude/beige mice, tumors measured on day 7, FIG. 1A; for MDSC infiltration of tumors: CD11b+ GR-1+ cells, FIGS. 5A, 5C
Protocol: (§1) With each of the human cell lines, 1×10^7 tumor cells were implanted subcutaneously in the flanks of 36 nude/beige mice and tumors allowed to grow to roughly 7 mm in diameter. […] Therefore, on day 7, the mice were sacrificed and the tumors were measured and immediately excised and divided into three parts. One part of each tumor was paraffin-embedded for dual color immunofluorescence. Another part was mechanically disaggregated and treated with collagenase/DNAse to generate a single cell suspension for flow cytometry. The third part was frozen for future pharmacokinetic analysis. Microscope slides were made from the paraffin-embedded tumor tissue, which were stained with antibodies against CD11b, Gr-1, and FAP. The number of infiltrating CD11b+/Gr-1+ MDSC and FAP+ fibroblasts present in the tumor tissue was then determined by immunofluorescence (IF) as previously described (1).
(§2) The disaggregated tumor specimens were analyzed for CD11b+/Gr-1+ MDSC and FAP+ fibroblasts by flow cytometry. The fraction of both populations expressing CXCR4 were also determined. At the time the mice were sacrificed, the spleens were removed and cut in half. One part was disaggregated into single cell suspensions and analyzed by flow cytometry as above for MDSC. The second half was frozen for future analyses, such as PK analysis. Finally, a bone marrow (BM) sample was generated by extruding marrow from an excised femur with a syringe filled with saline and analyzed by flow cytometry for MDSC.

[1] = cited from earlier work
A498 RCC xenografts = assay: Murine A498 RCC xenograft model; type: in vivo, mice; conditions: for MDSC infiltration of tumors: CD11b+ GR-1+ cells, FIGS. 5B, 5D; for effects on tumor growth: nude/beige mice, tumors measured on day 7, FIG. 1B
Protocol: as §1, §2

[2] = oral axitinib; see current product label; cited from earlier work
[3] = over the range pH 1.1 to pH 7.8; cited from earlier work
A375 cells = A375 cells with or without constitutively active Stat3 construct, treated 24 h; type: cell-based; conditions: A375 cells +/- constitutively active Stat3, 24 h, normoxic or hypoxic; FIG. 15
Description: FIG. 15A illustrates Western blot results from lysates of A375 cells or A375 cells transfected with a constitutively active Stat3 construct. […] Without wishing to be bound by theory, it is believed that Stat3 is important in promoting CXCL-12 mediated invasion of tumors.

786 cells = 786 cells treated in vitro for 24 hours, normoxic and hypoxic (1% O2); type: cell-based, human; conditions: 786 hypoxic cells in vitro
Description: FIG. 14B illustrates mir-30a and mir-30c microRNA and (FIG. 14C) total HIF-2α, RNA expression from the same cells from FIG. 14A.

[4] = Phase 1 and 2a trials; cited from earlier work
[5] = test system: renal cell carcinoma (RCC) xenografts; conditions: cited from earlier work

| Compound | micro-RNAs mir-30a and mir-30c expression (786-0 RCC xenografts; 786-0 xenograft tumor, after 8 days of treatment, FIG. 12) | effects on tumor growth (786-0 RCC xenografts) | MDSC infiltration of tumors (786-0 RCC xenografts) | pKa [1] | MDSC infiltration of tumors (A498 RCC xenografts) | effects on tumor growth (A498 RCC xenografts) | absorption, effect of food [2] | solubility in aqueous media [3] | level of HIF-2α (786-0 RCC xenografts; 786 xenograft tumors, Western blots, 8 days of treatment, FIGS. 11, 13) | suppression of HIF-2α and induction of mir-30a and 30c (A375 cells) | mir-30a and mir-30c microRNA (786 cells; FIG. 14B) | HIF-2α (786 cells; FIGS. 14A, 14C) | pharmacodynamic activity: circulating white blood cells (WBCs) [4] | volume of distribution (VL) [4] | development of sunitinib resistance ([5]; MI-319 given concurrently with sunitinib) | infiltration of RCC xenografts with CD11b+/Gr-1+ MDSC ([5]; earlier work by some of the inventors, MI-319 given concurrently with sunitinib) | HIF-2 expression ([5]; earlier work of the inventors) |
| --- | --- | --- | --- | --- | --- | --- | --- | --- | --- | --- | --- | --- | --- | --- | --- | --- | --- |
| CNC(=O)c1ccccc1Sc1ccc2c(/C=C/c3ccccn3)n[nH]c2c1 [axitinib, N-methyl-2-[3((E)-2-pyridin-2-yl-vinyl)-1H-indazol-6-ylsulfanyl]-benzamide] | suppressed | no | extensive MDSC infiltration | 4.8 | extensive MDSC infiltration | no | not altered by food | > 0.2 µg/mL |  |  |  |  |  |  |  |  |  |
| NCCCCN(Cc1nc2ccccc2[nH]1)[C@H]1CCCc2cccnc21 [X4P-001] |  | modest | significantly less MDSC infiltration |  | significantly less MDSC infiltration | modest |  |  | reduction in the level of HIF-2α relative to that caused by axitinib treatment | dependent on Stat3 expression | mir-30a and mir-30c induction | HIF-2α reduction | dose- and concentration-related changes | high |  |  |  |
| MI-319 |  |  |  |  |  |  |  |  |  |  |  |  |  |  | prevented | prevented | suppresses |
